What was measured:
[1] = tested on: liver fat content; assay: Phase 1 12-week NAFLD study (Example 1): liver fat content by MRI-PDFF; type: in vivo, human; conditions: for absolute reduction in liver fat (MRI-PDFF): week 12, NAFLD; for relative reduction in liver fat (MRI-PDFF) / proportion of patients with at least 30% reduction in liver fat content / proportion of patients with at least 50% reduction in liver fat content / proportion of patients with normalization in liver fat content (equal or below 5%): week 12
Source text: Provided herein is disclosure of a Phase 1, multicenter, randomized, double-blind, placebo-controlled study to assess the effects of Pemvidutide (also termed herein as ALT-801), the safety of Pemvidutide and effects on hepatic fat fraction, anthropometric parameters, lipid metabolism, inflammatory markers and fibrosis markers in diabetic and non-diabetic (type 2 diabetes) overweight and obese (BMI 28.0 kg/m^2) subjects with NAFLD. This study was designed to assess changes in hepatic fat fraction by MRI-PDFF (magnetic resonance imaging-proton density fat fraction) in diabetic and non-diabetic overweight and obese subjects with NAFLD after 12 weeks of ALT-801 treatment. The trial was conducted without adjunctive diet and exercise interventions. The study assessed changes in body weight, lipid metabolism, metabolic markers, and inflammatory markers and safety and tolerability of ALT-801 after 12 weeks of treatment. Subjects were stratified for the presence or absence of diabetes at baseline. Fibroscan and cT1 assessments evaluated changes in liver inflammatory and fibrotic activity at the end of 12 weeks of treatment.
Overweight and obese volunteers with BMI ≥28 kg/m^2 were studied because this is the typical population of individuals with NAFLD, and these subjects are able to better tolerate the predicted Pharmacodynamics (PD) effect of weight loss and could even benefit from treatment. A hepatic fat fraction of 10% has been typical for the evaluation of hepatic fat fraction in subjects with NAFLD. In other words, individuals with a liver fat fraction of 10% or greater are typically diagnosed with NAFLD. Diabetic subjects that require insulin, sulfonylureas or DDP-4 inhibitors for control of diabetes were excluded in this study. Exclusions were instituted that might otherwise affect an accurate assessment of the effects of ALT-801 on safety or PD. The BMI upper limit is set to 45 kg/m^2 as subjects over this BMI are no likely to fit into the MRI scanner.
The study, described in this example, was carried out in 94 subjects overweight and obese (body mass index [BMI] ≥28.0 kg/m^2) Type 2 diabetic and non-diabetic subjects with nonalcoholic fatty liver disease (NAFLD) over about 4.5 months, including up to a 35-day screening period, and 85-day treatment period and a 25-day follow-up period, with treatment with ALT-801 (a composition comprising SEQ ID NO.: 1, “study medication”) or placebo administered by subcutaneous (SC) injection once weekly for up to twelve (12) doses.
The safety objective of this study was to assess the safety and tolerability of ALT-801 in 18-65 years old subjects with NAFLD (NAFLD without significant fibrosis, defined as FibroScan® controlled attenuation parameter (CAP) ≥280 dB/m and liver stiffness measurement (LSM)<10 kPa (i.e., indicating the absence of significant fibrosis), magnetic resonance imaging derived proton density fat fraction (MRI-PDFF) ≥10%), hemoglobin Alc (HbAlc) of less than 9.5%, and alanine aminotransferase (ALT) or aspartate aminotransferase (AST) values of ≤[…]. The pharmacodynamic (PD) objectives of this study were to evaluate the effects of ALT-801 on hepatic fat fraction, anthropometric parameters, lipid metabolism, metabolic markers, inflammatory markers, fibrosis markers, and lipotoxicity markers. The pharmacokinetic (PK) objectives of this study were to evaluate the effects of ALT-801 and metformin exposure (drug interactions) on the subjects (e.g., ALT-801 and metformin concentrations in blood over time).
After providing informed consent, subjects underwent a screening period of up to 35 days. Subjects were instructed on how to maintain their normal diets, alcohol consumption and physical activities and not to start any new diets, supplements, or exercise programs at any time while participating in the study. […]

[2] = tested on: plasma lipids and lipoproteins; assay: Phase 1 study NCT0456124 (Example 2): lipoprotein profiling by NMR and lipidomic profiling by UHPLC-MS; type: in vivo, human
Procedure: To test the lipid-lowering effects of pemvidutide, an analysis of Phase I clinical trial (NCT0456124) data was carried out. The subjects with overweight/obesity (BMI 25-40 kg/m^2) were randomized at 1 site in Australia (NCT0456124). Subjects were randomized 4:1 pemvidutide:placebo, with placebos pooled. […] Lipoprotein and glycoprotein profiling covering 33 lipoprotein related parameters was performed by ^1H-NMR on fasting plasma samples obtained at Day −1 (baseline), Day 43, and Day 84 from the 34 subjects who completed NCT0456124. Lipidomic profiling covering 600 lipid species was performed by ultra-high performance liquid chromatography-mass spectrometry on fasting plasma samples obtained at Day −1 (baseline), Day 43, and Day 84 from the 34 subjects who completed NCT0456124. For the lipid profiling, plasma fractionation was performed either using methanol to extract fatty acyls, bile acids, steroids, and lyso-glycerophospholipids, or using a chloroform/methanol mix to extract glycerolipids, cholesteryl esters, sphingolipids, and glycerophospholipids. Lipid classification followed the classification system proposed by Fahy et al. (J. Lipid Res. 2005; 46:839-861) and the LIPID MAPS initiative (http://www.lipidmaps.org) (see FIG. 8).
The color code represents the log 2 (robust fold-change) with blue colors denoting reduced lipoproteins (negative fold-changes) and red colors denoting increased lipoproteins (positive fold-changes).
Given the observed changes in the total cholesterol, triglycerides and lipoproteins, an evaluation of the serum lipid composition covering 600 lipid species at Day −1 (baseline), Day 43, and Day 84 from the 34 subjects who completed NCT0456124 was performed. Results are presented in FIG. 10 as log 2 pairwise fold change with blue colors denoting a reduction in the lipid relative to baseline, and red an increase. The grey/black bars indicate significant p-values of Wilcoxon test.
The horizontal dashed line represents the lower limit of significance, while the vertical lines show a fold-change from baseline of ±0.75 on the log 2 scale.

Structure (SMILES): CC[C@H](C)[C@H](NC(=O)[C@H](Cc1ccccc1)NC(=O)[C@H](CCC(=O)O)NC(=O)[C@@H]1CCCCNC(=O)CC[C@H](NC(=O)[C@H](CC(=O)O)NC(=O)[C@H](CC(C)C)NC(=O)[C@H](Cc2ccc(O)cc2)NC(=O)[C@H](CCCCN)NC(=O)[C@H](CO)NC(=O)[C@H](Cc2ccc(O)cc2)NC(=O)[C@H](CC(=O)O)NC(=O)[C@H](CO)NC(=O)[C@@H](NC(=O)[C@H](Cc2ccccc2)NC(=O)[C@@H](NC(=O)CNC(=O)[C@H](CCC(N)=O)NC(=O)C(C)(C)NC(=O)[C@@H](N)Cc2c[nH]cn2)[C@@H](C)O)[C@H](C)O)C(=O)N[C@@H](CCCCNC(=O)C2O[C@@H](OCCCCCCCCCCCCCCCCCC(=O)O)C(O)C(O)[C@@H]2O)C(=O)N[C@@H](C)C(=O)N[C@@H](C)C(=O)N1)C(=O)N[C@@H](CCC(N)=O)C(=O)N[C@@H](Cc1c[nH]c2ccccc12)C(=O)N[C@@H](CC(C)C)C(=O)N[C@@H](CC(C)C)C(=O)N[C@@H](CCC(N)=O)C(=O)N[C@H](C(N)=O)[C@@H](C)O (some centres unmarked) [ALT-801, Pemvidutide]
- absolute reduction in liver fat (MRI-PDFF) ([1]; 1.2 mg SC once weekly): 8.9%
- relative reduction in liver fat (MRI-PDFF) ([1]; 1.2 mg once weekly): 46.6%
- proportion of patients with at least 30% reduction in liver fat content ([1]; 1.2 mg): 65 % of patients
- proportion of patients with at least 50% reduction in liver fat content ([1]; 1.2 mg): about 40 % of patients
- proportion of patients with normalization in liver fat content (equal or below 5%) ([1]; 1.2 mg): 20 % of patients
- absolute reduction in liver fat (MRI-PDFF) ([1]; 1.8 mg SC once weekly): 14.7%
- relative reduction in liver fat (MRI-PDFF) ([1]; 1.8 mg once weekly): 68.5%
- proportion of patients with at least 30% reduction in liver fat content ([1]; 1.8 mg): 94.4 % of patients
- proportion of patients with at least 50% reduction in liver fat content ([1]; 1.8 mg): 72.2 % of patients
- proportion of patients with normalization in liver fat content (equal or below 5%) ([1]; 1.8 mg): 55.6 % patients
- absolute reduction in liver fat (MRI-PDFF) ([1]; 2.4 mg SC once weekly (4-week titration)): 11.3%
- relative reduction in liver fat (MRI-PDFF) ([1]; 2.4 mg once weekly): 57.1%
- proportion of patients with at least 30% reduction in liver fat content ([1]; 2.4 mg): 85 % of patients
- proportion of patients with at least 50% reduction in liver fat content ([1]; 2.4 mg): 70%
- proportion of patients with normalization in liver fat content (equal or below 5%) ([1]; 2.4 mg): 50.0%
- relative reductions in liver fat (study conclusion) ([1]; 12 weeks): > 60%
- phosphatidyl-ethanolamine (PE) glycerophospholipids level ([2]; 1.8 mg): significantly reduced atherosclerotic plaque forming phosphatidyl-ethanolamine (PE) glycerophospholipids level
- pro-atherogenic lyso-PC levels ([2]; 1.8 mg): significantly reduced pro-atherogenic lyso-PC levels
- number of VLDL and LDL particles and of smaller HDL particles (2D-NMR) ([2]; Day 43 and Day 84 vs Day -1): tend to be reduced
- serum lipid levels (glycerolipids, glycerophospholipids, sphingolipids) ([2]; within 12 weeks of treatment): significantly reduced serum lipid levels

From patent publication US20240269238A1, “Therapeutic Regimens and Methods for Reducing Body Weight in a Subject with Fatty Liver Disease using a GLP-1R and GCGR Agonist” (Spitfire Pharma LLC, priority 2022, published 2024)
